PubChem BioAssay (NCI)
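Method: 48-hour compound exposure of cells in 96-well plates, five concentrations, linear interpolation of endpoints. TGI: concentration producing complete growth inhibition.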

Columns and labels:
Assay in all cases: DTP human tumour cell line panel, 48 h
SNB-19 CNS = test system: SNB-19 CNS
SF-268 CNS = test system: SF-268 CNS
SK-OV-3 ovarian = test system: SK-OV-3 ovarian
DU-145 prostate = test system: DU-145 prostate
SF-539 CNS = test system: SF-539 CNS
SK-MEL-5 melanoma = test system: SK-MEL-5 melanoma
SN12C renal = test system: SN12C renal
786-0 renal = test system: 786-0 renal
RXF 393 renal = test system: RXF 393 renal
A549 NSCLC = test system: A549 NSCLC
T-47D breast = test system: T-47D breast
IGROV1 ovarian = test system: IGROV1 ovarian
SF-295 CNS = test system: SF-295 CNS
NCI-H460 lung = test system: NCI-H460 lung
KM12 colon = test system: KM12 colon
SK-MEL-28 melanoma = test system: SK-MEL-28 melanoma
HT29 colon = test system: HT29 colon
M14 melanoma = test system: M14 melanoma
SW-620 colon = test system: SW-620 colon
ACHN renal = test system: ACHN renal
TK-10 renal = test system: TK-10 renal
A498 renal = test system: A498 renal
HCC-2998 colon = test system: HCC-2998 colon
SK-MEL-2 melanoma = test system: SK-MEL-2 melanoma
OVCAR-5 ovarian = test system: OVCAR-5 ovarian
LOX IMVI melanoma = test system: LOX IMVI melanoma
EKVX NSCLC = test system: EKVX NSCLC
HCT-116 colon = test system: HCT-116 colon
NCI-H23 lung = test system: NCI-H23 lung
MALME-3M melanoma = test system: MALME-3M melanoma
U251 CNS = test system: U251 CNS
NCI-H226 lung = test system: NCI-H226 lung
SNB-75 CNS = test system: SNB-75 CNS
MCF7 breast = test system: MCF7 breast
HOP-62 NSCLC = test system: HOP-62 NSCLC
OVCAR-4 ovarian = test system: OVCAR-4 ovarian
HS 578T breast = test system: HS 578T breast
COLO 205 colon = test system: COLO 205 colon
HL-60(TB) leukemia = test system: HL-60(TB) leukemia
NCI/ADR-RES ovarian = test system: NCI/ADR-RES ovarian
BT-549 breast = test system: BT-549 breast
HCT-15 colon = test system: HCT-15 colon
NCI-H522 lung = test system: NCI-H522 lung
K-562 leukemia = test system: K-562 leukemia
MOLT-4 leukemia = test system: MOLT-4 leukemia
MDA-MB-435 = test system: MDA-MB-435
MDA-MB-231 breast = test system: MDA-MB-231 breast
UACC-62 melanoma = test system: UACC-62 melanoma
CAKI-1 renal = test system: CAKI-1 renal
UACC-257 melanoma = test system: UACC-257 melanoma
CCRF-CEM leukemia = test system: CCRF-CEM leukemia
HOP-92 NSCLC = test system: HOP-92 NSCLC
OVCAR-8 ovarian = test system: OVCAR-8 ovarian
UO-31 renal = test system: UO-31 renal
MDA-N = test system: MDA-N
OVCAR-3 ovarian = test system: OVCAR-3 ovarian
RPMI-8226 leukemia = test system: RPMI-8226 leukemia
PC-3 prostate = test system: PC-3 prostate

FC(F)(F)c1ccc2nc(Sc3ccccn3)cnc2c1
TGI (SNB-19 CNS): 86.8 µM | TGI (SF-268 CNS): > 100 µM | TGI (SK-OV-3 ovarian): > 100 µM | TGI (DU-145 prostate): > 100 µM | TGI (SF-539 CNS): 35.9 µM | TGI (SK-MEL-5 melanoma): 66.2 µM | TGI (SN12C renal): > 100 µM | TGI (786-0 renal): 62.1 µM | TGI (RXF 393 renal): 55.5 µM | TGI (A549 NSCLC): > 100 µM | TGI (T-47D breast): > 100 µM | TGI (IGROV1 ovarian): > 100 µM | TGI (SF-295 CNS): > 100 µM | TGI (NCI-H460 lung): > 100 µM | TGI (KM12 colon): > 100 µM | TGI (SK-MEL-28 melanoma): > 100 µM | TGI (HT29 colon): > 100 µM | TGI (M14 melanoma): > 100 µM | TGI (SW-620 colon): > 100 µM | TGI (ACHN renal): 52.9 µM | TGI (TK-10 renal): > 100 µM | TGI (A498 renal): 54.1 µM | TGI (HCC-2998 colon): 38.3 µM | TGI (SK-MEL-2 melanoma): 31.1 µM | TGI (OVCAR-5 ovarian): > 100 µM | TGI (LOX IMVI melanoma): > 100 µM | TGI (EKVX NSCLC): > 100 µM | TGI (HCT-116 colon): > 100 µM | TGI (NCI-H23 lung): 78.8 µM | TGI (MALME-3M melanoma): > 100 µM | TGI (U251 CNS): 42.3 µM | TGI (NCI-H226 lung): 60.2 µM | TGI (SNB-75 CNS): 96.1 µM | TGI (MCF7 breast): > 100 µM | TGI (HOP-62 NSCLC): > 100 µM | TGI (OVCAR-4 ovarian): > 100 µM | TGI (HS 578T breast): > 100 µM | TGI (COLO 205 colon): > 100 µM | TGI (HL-60(TB) leukemia): 31.7 µM | TGI (NCI/ADR-RES ovarian): > 100 µM | TGI (BT-549 breast): 68.1 µM | TGI (HCT-15 colon): > 100 µM | TGI (NCI-H522 lung): 43.7 µM | TGI (K-562 leukemia): > 100 µM | TGI (MOLT-4 leukemia): > 100 µM | TGI (MDA-MB-435): > 100 µM | TGI (MDA-MB-231 breast): > 100 µM | TGI (UACC-62 melanoma): 88.3 µM | TGI (CAKI-1 renal): > 100 µM | TGI (UACC-257 melanoma): > 100 µM | TGI (CCRF-CEM leukemia): > 100 µM | TGI (HOP-92 NSCLC): > 100 µM | TGI (OVCAR-8 ovarian): > 100 µM | TGI (UO-31 renal): > 100 µM | TGI (MDA-N): > 100 µM

COc1cc(C(c2ccc3c(c2)OCO3)N2C(=O)CCC2C(=O)O)cc(OC)c1OC (configuration not stated)
TGI (SNB-19 CNS): > 100 µM | TGI (SF-268 CNS): > 100 µM | TGI (SK-OV-3 ovarian): > 100 µM | TGI (DU-145 prostate): > 100 µM | TGI (SF-539 CNS): > 100 µM | TGI (SK-MEL-5 melanoma): > 100 µM | TGI (OVCAR-3 ovarian): > 100 µM | TGI (SN12C renal): > 100 µM | TGI (786-0 renal): > 100 µM | TGI (A549 NSCLC): > 100 µM | TGI (T-47D breast): > 100 µM | TGI (IGROV1 ovarian): > 100 µM | TGI (SF-295 CNS): > 100 µM | TGI (NCI-H460 lung): > 100 µM | TGI (KM12 colon): > 100 µM | TGI (SK-MEL-28 melanoma): > 100 µM | TGI (HT29 colon): > 100 µM | TGI (M14 melanoma): > 100 µM | TGI (RPMI-8226 leukemia): > 100 µM | TGI (SW-620 colon): > 100 µM | TGI (ACHN renal): > 100 µM | TGI (TK-10 renal): > 100 µM | TGI (A498 renal): > 100 µM | TGI (HCC-2998 colon): > 100 µM | TGI (SK-MEL-2 melanoma): > 100 µM | TGI (OVCAR-5 ovarian): > 100 µM | TGI (LOX IMVI melanoma): > 100 µM | TGI (EKVX NSCLC): > 100 µM | TGI (HCT-116 colon): > 100 µM | TGI (NCI-H23 lung): > 100 µM | TGI (MALME-3M melanoma): > 100 µM | TGI (U251 CNS): > 100 µM | TGI (NCI-H226 lung): > 100 µM | TGI (SNB-75 CNS): > 100 µM | TGI (MCF7 breast): > 100 µM | TGI (HOP-62 NSCLC): > 100 µM | TGI (OVCAR-4 ovarian): > 100 µM | TGI (HS 578T breast): > 100 µM | TGI (COLO 205 colon): > 100 µM | TGI (PC-3 prostate): > 100 µM | TGI (HL-60(TB) leukemia): > 100 µM | TGI (NCI/ADR-RES ovarian): > 100 µM | TGI (BT-549 breast): > 100 µM | TGI (HCT-15 colon): > 100 µM | TGI (NCI-H522 lung): > 100 µM | TGI (K-562 leukemia): > 100 µM | TGI (MOLT-4 leukemia): > 100 µM | TGI (MDA-MB-435): > 100 µM | TGI (MDA-MB-231 breast): > 100 µM | TGI (UACC-62 melanoma): > 100 µM | TGI (CAKI-1 renal): > 100 µM | TGI (UACC-257 melanoma): > 100 µM | TGI (CCRF-CEM leukemia): > 100 µM | TGI (HOP-92 NSCLC): > 100 µM | TGI (OVCAR-8 ovarian): > 100 µM | TGI (UO-31 renal): > 100 µM | TGI (MDA-N): > 100 µM

O=[As](O)(O)c1ccc(N=Nc2ccc(O)cc2)cc1
TGI (SNB-19 CNS): > 100 µM | TGI (SF-268 CNS): > 100 µM | TGI (SK-OV-3 ovarian): > 100 µM | TGI (DU-145 prostate): > 100 µM | TGI (SK-MEL-5 melanoma): > 100 µM | TGI (OVCAR-3 ovarian): > 100 µM | TGI (SN12C renal): > 100 µM | TGI (786-0 renal): > 100 µM | TGI (RXF 393 renal): > 100 µM | TGI (A549 NSCLC): > 100 µM | TGI (T-47D breast): > 100 µM | TGI (IGROV1 ovarian): > 100 µM | TGI (SF-295 CNS): > 100 µM | TGI (NCI-H460 lung): > 100 µM | TGI (KM12 colon): > 100 µM | TGI (SK-MEL-28 melanoma): > 100 µM | TGI (HT29 colon): > 100 µM | TGI (M14 melanoma): > 100 µM | TGI (RPMI-8226 leukemia): > 100 µM | TGI (SW-620 colon): > 100 µM | TGI (ACHN renal): > 100 µM | TGI (TK-10 renal): > 100 µM | TGI (A498 renal): > 100 µM | TGI (SK-MEL-2 melanoma): > 100 µM | TGI (OVCAR-5 ovarian): > 100 µM | TGI (LOX IMVI melanoma): > 100 µM | TGI (EKVX NSCLC): > 100 µM | TGI (HCT-116 colon): > 100 µM | TGI (NCI-H23 lung): > 100 µM | TGI (MALME-3M melanoma): > 100 µM | TGI (U251 CNS): > 100 µM | TGI (NCI-H226 lung): > 100 µM | TGI (SNB-75 CNS): > 100 µM | TGI (MCF7 breast): > 100 µM | TGI (HOP-62 NSCLC): > 100 µM | TGI (OVCAR-4 ovarian): > 100 µM | TGI (HS 578T breast): > 100 µM | TGI (COLO 205 colon): > 100 µM | TGI (PC-3 prostate): > 100 µM | TGI (HL-60(TB) leukemia): > 100 µM | TGI (NCI/ADR-RES ovarian): > 100 µM | TGI (BT-549 breast): > 100 µM | TGI (HCT-15 colon): > 100 µM | TGI (NCI-H522 lung): > 100 µM | TGI (K-562 leukemia): > 100 µM | TGI (MOLT-4 leukemia): 17.1 µM | TGI (MDA-MB-435): > 100 µM | TGI (MDA-MB-231 breast): > 100 µM | TGI (UACC-62 melanoma): > 100 µM | TGI (CAKI-1 renal): > 100 µM | TGI (CCRF-CEM leukemia): > 100 µM | TGI (HOP-92 NSCLC): > 100 µM | TGI (OVCAR-8 ovarian): > 100 µM | TGI (UO-31 renal): > 100 µM | TGI (MDA-N): > 100 µM
